Entries after “also recorded” stand apart in the source; their conditions may differ. Where two headings read alike, the source gives them in different places.
Experiments:
[1] = test system: rat models of hypoxia-induced pulmonary hypertension; settings: cited from earlier work
[2] = in vivo; settings: male, Holstein, bovine, serum, po, 235 mg
Procedure: (§8) Pharmacokinetic parameters were calculated by a non-compartmental model using Phoenix WinNonlin v8.1 ([Wagner, 1993]).

[3] = cited from earlier work; for metabolite AUC relative to that of vorinostat: in humans
[4] = Serum pharmacokinetics after single oral dose in normoxic calves; settings: for ratio of metabolite AUC to vorinostat AUC: calves
Procedure: as §8

[5] = test system: bovine PH-fibs; parameters: method as in Li et al., 2011; settings: ref Li et al., 2011; cited from earlier work
[6] = parameters: method as in Fraczek et al., 2013; settings: rats, oral; ref Fraczek et al., 2013; cited from earlier work
[7] = test system: HDAC1; experiment: Immunoblotting of HDAC abundance in RV and lung homogenates; format: in vivo, bovine calf; settings: vorinostat over initial 5 days of hypoxia, measured at end of 14 days hypoxic exposure, vs untreated PH
Procedure: At the conclusion of the study period, calves were deeply anesthetized and euthanized. Tissue samples from right ventricle free wall and distal lung parenchyma were snap frozen in liquid nitrogen for laboratory analysis. RNA isolation and quantitative PCR were performed as described previously ([Frid et al., 2009]). mRNA abundance was quantitated relative to HPRT by the delta Ct method. The following primers were used (5′–3′). […] TCCA; Osteopontin (SPPA), Fwd:[…]; Hypoxanthine ribosyl transferase (HPRT), Fwd:[…], Rev:[…].
Procedures for immunoblotting and densitometry were performed as described previously ([Li et al., 2011]). HDAC antibodies were obtained from Cell Signaling Technology (HDAC1, #5356; HDAC5, #20458).
(A) Immunoblotting HDAC abundance.

[8] = cited from earlier work
[9] = test system: brain natriuretic peptide (BNP) and skeletal muscle alpha-actin mRNAs; experiment: Real-time PCR of genes in RV hypertrophic remodeling; format: in vivo, bovine calf
Procedure: (§1) At the conclusion of the study period, calves were deeply anesthetized and euthanized. Tissue samples from right ventricle free wall and distal lung parenchyma were snap frozen in liquid nitrogen for laboratory analysis. RNA isolation and quantitative PCR were performed as described previously ([Frid et al., 2009]). mRNA abundance was quantitated relative to HPRT by the delta Ct method. The following primers were used (5′–3′). Fibronectin, Extracellular Domain A (ED-A Fn), Fwd:[…], Rev:[…]; Tenascin C (TnC), Fwd:G […], Rev:[…] TCCA; Osteopontin (SPPA), Fwd:[…] […]
(§2) (A) Immunoblotting HDAC abundance. RV and lung homogenates were prepared and HDAC abundance was determined by immunoblotting as described in section “Materials and Methods.” Additional untreated control and hypoxic animals were analyzed in parallel for comparison. Protein abundance was quantitated densitometrically relative to beta-actin. *p < 0.05 vs. control (unpaired two-tailed t-test). […] Abundances of indicated mRNAs were quantitated by real-time PCR as described in section “Materials and Methods.” Animals used in the present study were analyzed together with samples from additional untreated hypoxic and normoxic calves (n = 4 each) that were managed according to the same animal protocols described in section “Materials and Methods,” and studied around the same period of time. […]

[10] = test system: normoxic control calves; experiment: Hemodynamics by right heart catheterization, normoxic calves; format: in vivo, bovine calf
From the text: (§3) The bovine calf hypoxia model of PH previously reported ([Stenmark et al., 1987]; [Lemler et al., 2000]; [Bartels et al., 2016]) consistently produces significant pulmonary hypertension (mean PAP > 100 mmHg) and subsequent tissue changes on post-mortem examination ([Stenmark et al., 1987]). Animals display blood gas PaO2 and PaCO2 values consistent to severe hypoxia and PH ([Stenmark et al., 1987]; [Lemler et al., 2000]). Male Holstein dairy calves at 7 days of age (45–50 kg) were sourced from a local dairy farm. This study utilized a case comparison design. […] Hypoxic calves (Groups 1 and 2) were exposed to hypobaric hypoxia at simulated elevation of 10,000 feet for 48–72 h to allow acclimation then exposed to hypobaric hypoxia at the study condition of 15,000 feet simulated elevation (PB = 430 mmHg, Hypo-Hyperbaric Chamber Facility, Colorado State University Department of Physiology). The standard exposure interval was 14 days at this elevation. Control normoxic calves remained at ambient Fort Collins pressure (4,950 feet PB = 630 mmHg).
(§4) This dosing regimen was selected to minimize adverse effects based on guidelines for human pediatric patients (Lia Gore MD, Center for Cancer and Blood Disorders, Children’s Hospital Colorado, personal communication.) Group 2 calves received no drug treatment. At this age, the calf digestive system has not matured and the abomasum functions as the sole stomach similar to humans.
(§5) Standard measurements of PAP and cardiac output were performed by right heart catheterization concurrent with the final echo in both the two normoxic and two hypoxic calves on study day 14 as described previously ([Stenmark et al., 1987]; [Lemler et al., 2000]).
(§6) Data were obtained from right heart catheterization as described in Materials and Methods. Standard units: Pressure, mm Hg; Cardiac output, L/min; PA, pulmonary artery.

[11] = test system: calves with hypoxia-induced pulmonary hypertension; experiment: Hemodynamics by right heart catheterization, hypoxic calf; format: in vivo, bovine calf
From the text: as §3, §4, §5, §6

[12] = test system: calves in normoxic or hypoxic conditions; experiment: Clinical signs and blood chemistry during and after dosing; format: in vivo, bovine calf
From the text: as §4

[13] = test system: normoxic control calves; experiment: Echocardiography in normoxic vorinostat-treated control calves; format: in vivo, bovine calf
From the text: as §3, §4
(§7) Echocardiography was utilized for non-invasive sequential assessment of cardiopulmonary function as described previously ([Lemler et al., 2000]; [Bartels et al., 2016]). […] The progression of pulmonary hypertension was evaluated by sequential echocardiography at the study condition (15,000 feet or normoxia) on study days 4, 8 and terminal day 14. Parasternal long and short axis recordings were obtained over 3–4 cardiac cycles, together with M-mode traces as indicated, using GE Echo PACS (General Electric, Chicago, IL, United States) or MicroDicom^1 software. Echocardiographic findings consistent with PH (abnormal RV size and function), or interventricular septum abnormalities including abnormal motion or flattening were evaluated ([Boon, 2011]). Septal motion and flattening were further quantitated by eccentricity index EI on short-axis views with EchoPACS. Tricuspid or mitral valve regurgitation was scored qualitatively as trace, mild, moderate or severe. Global RV function was assessed qualitatively. When RV images on long-axis included the entire chamber, RV fractional area change (FAC) was calculated with EchoPACS. RV fractional shortening was measured from M-mode recordings using MicroDicom. Calves were monitored following each non-terminal echo procedure for recovery including standing and interacting normally, and normal milk intake.

[14] = test system: IL-6, CSF2, SDF1, IL1β, IL-1RA, TLR2, POSN mRNAs; experiment: Pairwise qPCR of inflammatory and matrikine gene expression; format: in vivo, bovine calf; settings: hypoxic vorinostat-treated vs. untreated calf
Procedure: At the conclusion of the study period, calves were deeply anesthetized and euthanized. Tissue samples from right ventricle free wall and distal lung parenchyma were snap frozen in liquid nitrogen for laboratory analysis. RNA isolation and quantitative PCR were performed as described previously ([Frid et al., 2009]). mRNA abundance was quantitated relative to HPRT by the delta Ct method. The following primers were used (5′–3′). Fibronectin, Extracellular Domain A (ED-A Fn), Fwd:[…], Rev:[…]; Tenascin C (TnC), Fwd:G […], Rev:[…] TCCA; Osteopontin (SPPA), Fwd:[…] CACAGA, Rev:[…]; Periostin (POSTN), Fwd:[…], Rev:CAC […]; Skeletal muscle alpha-actin (ACTA1), Fwd:[…], Rev:GAAGGT […]; Brain natriuretic peptide (NPPB), Fwd:[…], Rev:[…]; Hypoxanthine ribosyl transferase (HPRT), Fwd:[…], Rev:[…].
Figure 2. Comparison of inflammatory and matrikine gene expression in vorinostat treated versus untreated hypoxic calves. mRNA abundance was quantitated as described in Methods. For each indicated mRNA, abundance in the vorinostat-treated PH calf was determined relative to that in the untreated PH calf (indicated by dotted line at unity).

[15] = test system: calves with hypoxia-induced pulmonary hypertension; experiment: Echocardiography in neonatal calf model of hypoxia-induced PH; format: in vivo, bovine calf
From the text: as §3, §4, §7

[16] = test system: ED-A Fn, tenascin C, osteopontin and periostin mRNAs; experiment: Real-time PCR of genes in pulmonary remodeling; format: in vivo, bovine calf
Procedure: as §1, §2

[17] = parameters: method as in Fraczek et al., 2013; settings: dogs, oral; ref Fraczek et al., 2013; cited from earlier work
[18] = ref Cho et al., 2010, Cavasin et al., 2012
[19] = Normoxic vorinostat treated #1, study day 14
[20] = Normoxic vorinostat treated #2, study day 14
[21] = Hypoxic vorinostat treated calf, study day 14
[22] = vorinostat-treated PH calf, day 14
[23] = human adult dose of 400 mg daily, ref Iwamoto et al., 2013
[24] = single oral dose, four normoxic calves

Nc1ccccc1NC(=O)c1ccc(CNc2nccc(-c3cccnc3)n2)cc1 [MCD-0103]
RV function [1, 18]: preserved
RV hypertrophic and pro-fibrotic remodeling [1, 18]: attenuated

Nc1ccccc1NC(=O)c1ccc(CNC(=O)OCc2cccnc2)cc1 [MS-275]
RV function [1, 18]: preserved
RV hypertrophic and pro-fibrotic remodeling [1, 18]: attenuated

O=C(O)CCC(=O)Nc1ccccc1 [Succininanilic Acid, succinanilic acid]
Tmax [2]: 6 h
metabolite AUC relative to that of vorinostat ([3]; ref Iwamoto et al., 2013): 10–13 times
ratio of metabolite AUC to vorinostat AUC ([4]; single oral dose): ~20 fold

O=C(CCCCCCC(=O)Nc1ccccc1)NO[C@@H]1O[C@H](C(=O)O)[C@@H](O)[C@H](O)[C@H]1O [Vorinostat glucoronide]
metabolite AUC relative to that of vorinostat ([3]; ref Iwamoto et al., 2013): 3–4 times
ratio of metabolite AUC to vorinostat AUC ([4]; single oral dose): ~3 fold

CCC(=O)CCCCC[C@@H]1NC(=O)[C@H]2CCCCN2C(=O)[C@H]([C@@H](C)CC)NC(=O)[C@H](Cc2cn(OC)c3ccccc23)NC1=O [apicidin]
activated fibroblast phenotype [5]: reversed

CCCC(CCC)C(=O)O [valproic acid]
RV hypertrophy [1, 18]: attenuated
hypoxia-induced PH in rats ([1]; ref Zhao et al. (2012)): inhibited

O=C(CCCCCCC(=O)Nc1ccccc1)NO [vorinostat, suberanilohydroxamic acid]
Tmax [2]: ≤ 4 h
bioavailability [6]: 2%
expression of HDAC1 in both lung and RV [7]: tended to decrease
aqueous solubility [8]: poor
RV expression of BNP and skeletal muscle alpha-actin mRNAs ([9]; hypoxic calf, compared to calves with untreated PH): tended to decrease
RV mRNA abundance (BNP, skeletal muscle alpha-actin) of control calves ([9]; normoxic control calves): not affected
activated fibroblast phenotype [5]: reversed
Cardiac Output [10, 19]: 4.4 L/min
Mean PA Pressure [10, 19]: 25.1 mm Hg
PA Pulse Pressure [10, 19]: 17.6 mm Hg
Systolic PA Pressure [10, 19]: 34.0 mm Hg
Cardiac Output [10, 20]: 5.1 L/min
Mean PA Pressure [10, 20]: 19.4 mm Hg
PA Pulse Pressure [10, 20]: 14.5 mm Hg
Systolic PA Pressure [10, 20]: 27.1 mm Hg
effect on hemodynamic parameters in normoxic calves ([10]; compared to the authors' previous studies): did not affect
Cardiac Output [11, 21]: 5.5 L/min
Mean PA Pressure [11, 21]: 97.6 mm Hg
PA Pulse Pressure [11, 21]: 38.9 mm Hg
Systolic PA Pressure [11, 21]: 118.5 mm Hg
PA pulse pressure compared to untreated hypoxic calf [11, 22]: tended toward reduced; also recorded: substantially reduced
PA systolic pressure compared to untreated hypoxic calf [11, 22]: tended toward reduced; also recorded: slightly reduced
cardiac output compared to untreated hypoxic calf [11, 22]: increased; also recorded: increasing
mean PA pressure compared to untreated hypoxic calf [11, 22]: similar; also recorded: did not lower
standard blood chemistry values ([12]; data not shown): within normal reference intervals
adverse clinical signs attributable to vorinostat administration ([12]; during or following active dosing, normoxic or hypoxic conditions): No adverse clinical signs
RV Fractional area change (FAC) ([13]; Normoxic #2 calf, vorinostat administration, Study Day 14): 50.9%
adverse cardiac effects ([13]; based on echo and hemodynamic criteria): no evidence for adverse cardiac effects
RV fractional shortening ([13]; control (normoxic vorinostat-treated) calf, day 14, M-mode): 50%
echocardiographic evidence of negative impacts on cardiac function ([13]; control normoxic calves, vorinostat treatment): not associated with echocardiographic evidence of negative impacts on cardiac function
AUC [3, 23]: 4,000–6,000 nM•h
Cmax [3, 23]: 1000 to 1500 nM
half-life ([3]; humans and other animal species, ref Mohamed et al., 2012, Fraczek et al., 2013, Iwamoto et al.): approximately 2 h
Bioavailability of oral vorinostat ([3]; humans, ref Fraczek et al., 2013): 43%
Tmax ([3]; post-fed humans, ref Iwamoto et al., 2013): ~4 h
expression of pro-inflammatory mRNAs including IL-6, CSF2, SDF1, IL1β, IL-1RA, TLR2, and the matrikine POSN [14]: reduced expression
RV Fractional area change (FAC) ([15]; Hypoxic #1 calf, vorinostat first 5 days, Study Day 14): 30.1%
septal distortion compared to untreated PH calf ([15]; vorinostat-treated PH calf, apical 4-chamber echo images): reduced septal distortion
RV fractional shortening ([15]; vorinostat-treated PH calf, day 14, M-mode): 20%
degree of RV dysfunction compared to untreated hypoxic calf ([15]; vorinostat-treated hypoxic calf, days 4, 8, and 14): consistently less severe
time until serum vorinostat returns to undetectable levels ([4]; after single oral administration): ≤ 24 h
integrated area under the concentration × time curve [4, 24]: ~1,500 nM•h
peak serum concentration [4, 24]: ~400 nM
time to peak serum concentration [4, 24]: ~4 h
lung expression of ED-A Fn, TNC, osteopontin and periostin mRNAs ([16]; hypertensive calves compared to untreated hypertensive calves): tended to reduce
abundance of ED-A Fn, TNC, osteopontin and periostin mRNAs in normoxic animals ([16]; normoxic animals): not affected
bioavailability [17]: 11%

From publication PMC8450341 (Frontiers in Physiology, 2021)
